# ChEMBL document CHEMBL1122390, “2-benzazepines. 5. Synthesis of pyrimido[5,4-d][2]benzazepines and their evaluation as anxiolytic agents” (J Med Chem, 1983)
# Tests used:
# [1] = molecular target: GABA-A receptor; anion channel; assay: Binding affinity measured by [3H]diazepam binding assay in rat
# Mus musculus [2] = assay: Effective dose required for anxiolytic activity in mice when administered perorally (Antipentylene tetrazole test); type: functional; conditions: po
# Mus musculus [3] = assay: Effective dose required for anxiolytic activity in mice when administered perorally (Inclined screen test); type: functional; conditions: po
# Mus musculus [4] = assay: Effective dose required for anxiolytic activity in mice when administered perorally (Rotarod test); type: functional; conditions: po
# Felis catus [5] = assay: Minimum effective dose required for drug induced ataxia (observable symptomatology) in cat when administered perorally; type: functional; conditions: po, read-out: MED
# Monkey [6] = assay: Minimum effective dose required for anticonflict effect in monkey when administered perorally; type: functional; conditions: Cercopithecidae, in Primates, po; read-out: MED
# Monkey [7] = assay: Highest dose required for depressant effect when administered perorally; type: functional, Cercopithecidae
# Mus musculus [8] = assay: (§1) Effective dose required for ethanol interaction in mouse when administered perorally; conditions: po
# Rattus norvegicus [9] = assay: Lowest dose required for depressant effect (significant decrease in unpunished responding) in rat when administered perorally; type: functional
# Rattus norvegicus [10] = assay: Minimum effective dose required for anticonflict effect in rat when administered perorally; type: functional; conditions: po, read-out: MED
# Mus musculus [11] = assay: Effective dose required for anxiolytic activity in mice when administered perorally ( Rotarod test); type: functional; conditions: po
# Felis catus [12] = assay: Minimum effective dose required for drug induced ataxia (observable symptomatology) in cat when administered perorally.; type: functional; conditions: po, read-out: MED
# Mus musculus [13] = assay: as §1; type: functional; conditions: po
structure (smiles),measurement,setting,value
Nc1ncc2c(n1)-c1ccc(Cl)cc1C(c1ccccc1F)=[N+]([O-])C2,IC50,[1],38 nM
Cc1ncc2c(n1)-c1ccc(Cl)cc1C(c1ccccc1Cl)NC2 (stereo not drawn),IC50,[1],30 nM
same,ED50,Mus musculus [2],2.3 mg/kg
same,ED50,Mus musculus [3],> 400 mg/kg
same,ED50,Mus musculus [4],18 mg/kg
CNc1ncc2c(n1)-c1ccc(Cl)cc1C(c1ccccc1F)=NC2,IC50,[1],2.8 nM
same,ED50,Mus musculus [2],0.58 mg/kg
same,ED50,Mus musculus [3],> 400 mg/kg
same,ED50,Mus musculus [4],4 mg/kg
Cc1ncc2c(n1)-c1ccc(Cl)cc1C(c1ccccc1Cl)=NC2,IC50,[1],9.2 nM
same,ED50,Mus musculus [2],0.74 mg/kg
same,ED50,Mus musculus [3],> 400 mg/kg
same,ED50,Mus musculus [4],7.2 mg/kg
Cc1ncc2c(n1)-c1ccc(Cl)cc1C(c1ccccc1Cl)N(C)C2 (stereo not drawn),IC50,[1],25 nM
same,ED50,Mus musculus [2],7.7 mg/kg
same,ED50,Mus musculus [3],> 400 mg/kg
same,ED50,Mus musculus [4],74 mg/kg
Nc1ncc2c(n1)-c1ccccc1C(c1ccccc1)=NC2,IC50,[1],60 nM
same,ED50,Mus musculus [2],17 mg/kg
CCOC(=O)Cc1ncc2c(n1)-c1ccc(Cl)cc1C(c1ccccc1F)=NC2,IC50,[1],20 nM
same,ED50,Mus musculus [2],13 mg/kg
same,ED50,Mus musculus [4],> 200 mg/kg
Cc1ncc2c(n1)-c1ccccc1C(c1ccccc1)=NC2,IC50,[1],54 nM
same,ED50,Mus musculus [2],84 mg/kg
same,ED50,Mus musculus [4],200 mg/kg
CNC(=O)Cc1ncc2c(n1)-c1ccc(Cl)cc1C(c1ccccc1F)=NC2,IC50,[1],7.6 nM
same,ED50,Mus musculus [2],2.3 mg/kg
same,ED50,Mus musculus [3],> 400 mg/kg
same,ED50,Mus musculus [4],4 mg/kg
Nc1ncc2c(n1)-c1ccc(Cl)cc1C(c1ccccc1)=NC2,IC50,[1],17 nM
same,ED50,Mus musculus [2],4.9 mg/kg
same,ED50,Mus musculus [3],> 400 mg/kg
same,ED50,Mus musculus [4],19 mg/kg
Cc1ncc2c(n1)-c1ccc(Cl)cc1C(c1ccccc1)=NC2,IC50,[1],17 nM
same,ED50,Mus musculus [2],9.3 mg/kg
Cc1ncc2c(n1)-c1ccc(Cl)cc1C(c1ccccc1Cl)=[N+]([O-])C2,IC50,[1],15 nM
same,ED50,Mus musculus [2],0.72 mg/kg
same,ED50,Mus musculus [3],> 400 mg/kg
same,ED50,Mus musculus [4],6.3 mg/kg
Clc1ccc2c(c1)C(c1ccccc1Cl)NCc1cncnc1-2 (stereo not drawn),IC50,[1],54 nM
same,ED50,Mus musculus [2],6.9 mg/kg
same,ED50,Mus musculus [3],> 400 mg/kg
same,ED50,Mus musculus [4],22 mg/kg
Cc1ncc2c(n1)-c1ccc(Cl)cc1C(c1ccccc1F)=NC2,IC50,[1],3.1 nM
same,ED50,Mus musculus [2],6.6 mg/kg
same,ED50,Mus musculus [3],> 400 mg/kg
same,ED50,Mus musculus [4],7.8 mg/kg
Cc1nc2c(c[n+]1[O-])C[N+]([O-])=C(c1ccccc1Cl)c1cc(Cl)ccc1-2,IC50,[1],31 nM
same,ED50,Mus musculus [2],2.7 mg/kg
same,ED50,Mus musculus [3],240 mg/kg
same,ED50,Mus musculus [4],5.6 mg/kg
[O-][N+]1=C(c2ccccc2Cl)c2cc(Cl)ccc2-c2ncncc2C1,IC50,[1],39 nM
same,ED50,Mus musculus [2],0.87 mg/kg
same,ED50,Mus musculus [3],141 mg/kg
same,ED50,Mus musculus [4],4.9 mg/kg
CN1CCN(c2ncc3c(n2)-c2ccc(Cl)cc2C(c2ccccc2F)=NC3)CC1,IC50,[1],7.1 nM
same,ED50,Mus musculus [2],1.2 mg/kg
same,ED50,Mus musculus [3],> 400 mg/kg
same,ED50,Mus musculus [4],16 mg/kg
Nc1ncc2c(n1)-c1ccc(Cl)cc1C(c1ccccc1F)=NC2,IC50,[1],2.8 nM
same,ED50,Mus musculus [2],1.1 mg/kg
same,ED50,Mus musculus [3],> 400 mg/kg
same,ED50,Mus musculus [4],5.1 mg/kg
CC1=NCC2CNC(c3ccccc3Cl)c3cc(Cl)ccc3C2=N1 (stereo not drawn),IC50,[1],140 nM
same,ED50,Mus musculus [2],34 mg/kg
same,ED50,Mus musculus [3],200 mg/kg
same,ED50,Mus musculus [4],109 mg/kg
[O-][N+]1=C(c2ccccc2F)c2cc(Cl)ccc2-c2ncncc2C1,IC50,[1],41 nM
same,ED50,Mus musculus [2],3.9 mg/kg
same,ED50,Mus musculus [3],277 mg/kg
same,ED50,Mus musculus [4],3.95 mg/kg
[O-][N+]1=C(c2ccccc2F)c2cc(Cl)ccc2-c2nc(S)ncc2C1,IC50,[1],490 nM
same,ED50,Mus musculus [2],> 100 mg/kg
same,ED50,Mus musculus [3],> 400 mg/kg
same,ED50,Mus musculus [4],> 200 mg/kg
CN(C)c1ncc2c(n1)-c1ccc(Cl)cc1C(c1ccccc1F)=NC2,IC50,[1],8.2 nM
same,ED50,Mus musculus [2],1.1 mg/kg
same,ED50,Mus musculus [3],> 400 mg/kg
same,ED50,Mus musculus [4],2.2 mg/kg
Fc1ccccc1C1=NCc2cncnc2-c2ccc(Cl)cc21,IC50,[1],3.4 nM
same,ED50,Mus musculus [2],0.37 mg/kg
same,ED50,Mus musculus [3],> 400 mg/kg
same,ED50,Mus musculus [4],0.8 mg/kg
COc1ncc2c(n1)-c1ccc(Cl)cc1C(c1ccccc1F)=NC2,IC50,[1],3.5 nM
same,ED50,Mus musculus [2],2.6 mg/kg
same,ED50,Mus musculus [3],> 400 mg/kg
same,ED50,Mus musculus [4],9 mg/kg
CN1C(=O)CN=C(c2ccccc2)c2cc(Cl)ccc21 [DIAZEPAM],minimal effective dose,Felis catus [5],0.2 mg/kg
same,minimal effective dose,Monkey [6],0.31 mg/kg
same,HED,Monkey [7],20 mg/kg
same,ED50,Mus musculus [8],0.97 mg/kg
same,ED50,Mus musculus [2],1.4 mg/kg
same,ED50,Mus musculus [3],> 25 mg/kg
same,ED50,Mus musculus [4],3.2 mg/kg
same,DUR,Rattus norvegicus [9],20 mg/kg
same,minimal effective dose,Rattus norvegicus [10],1.25 mg/kg
CN(C)CCCNc1ncc2c(n1)-c1ccc(Cl)cc1C(c1ccccc1F)=NC2,IC50,[1],2.3 nM
same,ED50,Mus musculus [2],1.6 mg/kg
same,ED50,Mus musculus [3],187 mg/kg
same,ED50,Mus musculus [4],16 mg/kg
O=C(O)Cc1ncc2c(n1)-c1ccc(Cl)cc1C(c1ccccc1F)=NC2,IC50,[1],9.6 nM
same,ED50,Mus musculus [11],30 mg/kg
same,ED50,Mus musculus [2],12 mg/kg
same,ED50,Mus musculus [3],> 400 mg/kg
CC(C)c1ncc2c(n1)-c1ccc(Cl)cc1C(c1ccccc1Cl)=NC2,IC50,[1],25 nM
same,ED50,Mus musculus [2],3.8 mg/kg
same,ED50,Mus musculus [3],> 400 mg/kg
same,ED50,Mus musculus [4],21 mg/kg
Oc1ncc2c(n1)-c1ccc(Cl)cc1C(c1ccccc1F)=NC2,IC50,[1],9.6 nM
same,ED50,Mus musculus [2],6.3 mg/kg
same,ED50,Mus musculus [3],> 400 mg/kg
same,ED50,Mus musculus [4],29 mg/kg
Sc1ncc2c(n1)-c1ccc(Cl)cc1C(c1ccccc1Cl)=NC2,IC50,[1],270 nM
same,ED50,Mus musculus [2],18 mg/kg
same,ED50,Mus musculus [3],> 400 mg/kg
same,ED50,Mus musculus [4],214 mg/kg
Nc1ncc2c(n1)-c1ccc(Cl)cc1C(c1ccccc1Cl)=NC2,IC50,[1],2.6 nM
same,ED50,Mus musculus [2],0.07 mg/kg
same,ED50,Mus musculus [3],> 400 mg/kg
same,ED50,Mus musculus [4],1.4 mg/kg
Fc1ccccc1C1=NCc2cnc(Cl)nc2-c2ccc(Cl)cc21,IC50,[1],5.3 nM
same,ED50,Mus musculus [2],4.7 mg/kg
same,ED50,Mus musculus [3],> 400 mg/kg
same,ED50,Mus musculus [4],24 mg/kg
Clc1ccc2c(c1)C(c1ccccc1Cl)=NCc1cncnc1-2,IC50,[1],2.8 nM
same,minimal effective dose,Felis catus [12],0.5 mg/kg
same,minimal effective dose,Monkey [6],0.04 mg/kg
same,HED,Monkey [7],5 mg/kg
same,ED50,Mus musculus [13],2.2 mg/kg
same,ED50,Mus musculus [2],0.59 mg/kg
same,ED50,Mus musculus [3],215 mg/kg
same,ED50,Mus musculus [4],3.6 mg/kg
same,DUR,Rattus norvegicus [9],2.5 mg/kg
same,minimal effective dose,Rattus norvegicus [10],0.31 mg/kg
CSc1ncc2c(n1)-c1ccc(Cl)cc1C(c1ccccc1Cl)=NC2,IC50,[1],18.5 nM
same,ED50,Mus musculus [2],13 mg/kg
same,ED50,Mus musculus [3],> 400 mg/kg
same,ED50,Mus musculus [4],33 mg/kg
